Patent publication US20100234395A1, “UREIDE DERIVATIVE AND PHARMACEUTICAL APPLICATION THEREOF” (TORAY INDUSTRIES, INC., priority 2006, published 2010)
pIC50: −log10 of the molar value. Where two headings read alike, the source gives them in different places.

Assays:
COX-2 = target: T1, COX-2 (Homo sapiens, UniProt P35354); assay: Activity of inhibiting COX-2 in human blood (prostaglandin E2 after lipopolysaccharide); format: cell-based; conditions: prostaglandin E2 production
T1 construct: Human blood that had been sampled with the use of heparin (19 units/ml) was used; from tissue; host or cells: human whole blood (heparinised), aspirin-pretreated, stimulated with lipopolysaccharide
T1 sequence (P35354 18-604): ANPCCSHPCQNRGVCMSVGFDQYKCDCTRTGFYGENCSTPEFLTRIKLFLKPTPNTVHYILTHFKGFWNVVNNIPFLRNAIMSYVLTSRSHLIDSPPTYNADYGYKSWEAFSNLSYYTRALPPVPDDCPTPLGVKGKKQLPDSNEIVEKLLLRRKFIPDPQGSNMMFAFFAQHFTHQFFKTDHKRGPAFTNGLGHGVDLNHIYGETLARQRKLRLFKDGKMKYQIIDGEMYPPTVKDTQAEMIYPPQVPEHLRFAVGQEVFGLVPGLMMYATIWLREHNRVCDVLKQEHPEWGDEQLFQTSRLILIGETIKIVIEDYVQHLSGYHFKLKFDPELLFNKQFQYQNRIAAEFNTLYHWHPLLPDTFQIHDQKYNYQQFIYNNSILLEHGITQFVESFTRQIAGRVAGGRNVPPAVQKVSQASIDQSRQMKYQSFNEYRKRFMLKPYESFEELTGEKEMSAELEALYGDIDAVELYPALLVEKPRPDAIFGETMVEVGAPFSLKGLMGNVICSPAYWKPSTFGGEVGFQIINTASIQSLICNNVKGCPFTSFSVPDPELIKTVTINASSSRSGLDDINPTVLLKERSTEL
Method: Human blood that had been sampled with the use of heparin (19 units/ml) was used. Blood was fractionated to reaction tubes in amounts of 500 μl, aspirin (12 μg/ml) was added thereto, and the resultants were incubated at 37° C. for 6 hours. Thereafter, the test compound or solvent, and lipopolysaccharide (10 μg/ml) were added, and the reaction was allowed to proceed for 18 hours. After the completion of the reaction, the supernatant (blood plasma) was recovered via centrifugation at 4° C., and the amount of prostaglandin E2 in the plasma was quantified using a kit (514010, Cayman Chemical). Dimethyl sulfoxide (DMSO) was used as a solvent for the test compound. The amount of prostaglandin E2 produced via the addition of lipopolysaccharide was designated as 100%, and the concentration of the test compound that inhibits 50% of such reaction was represented by the IC50 value.

COX-1 = target: T2, COX-1 (Homo sapiens, UniProt P23219); assay: Activity of inhibiting COX-1 in human blood (thromboxane B2 after ionomycin); format: cell-based; conditions: thromboxane B2 production
T2 construct: Human blood that had been sampled with the use of heparin (19 units/ml) was used; from tissue; host or cells: human whole blood (heparinised)
T2 sequence (P23219 24-599): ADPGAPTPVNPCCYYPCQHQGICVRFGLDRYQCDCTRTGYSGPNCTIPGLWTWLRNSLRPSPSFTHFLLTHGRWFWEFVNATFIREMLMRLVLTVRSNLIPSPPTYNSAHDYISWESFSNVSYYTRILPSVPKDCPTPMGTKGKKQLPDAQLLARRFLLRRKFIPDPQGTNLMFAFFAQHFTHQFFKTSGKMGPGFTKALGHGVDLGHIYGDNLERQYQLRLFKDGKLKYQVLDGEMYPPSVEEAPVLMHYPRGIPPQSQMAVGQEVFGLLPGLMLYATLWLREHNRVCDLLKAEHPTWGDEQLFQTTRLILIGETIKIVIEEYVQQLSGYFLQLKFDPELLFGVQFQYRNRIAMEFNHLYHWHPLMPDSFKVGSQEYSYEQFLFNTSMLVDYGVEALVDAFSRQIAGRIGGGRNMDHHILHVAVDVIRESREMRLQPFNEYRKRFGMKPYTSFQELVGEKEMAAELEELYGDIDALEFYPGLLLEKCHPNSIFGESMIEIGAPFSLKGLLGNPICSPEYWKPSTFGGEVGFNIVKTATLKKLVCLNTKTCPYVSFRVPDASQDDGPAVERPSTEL
Method: Human blood that had been sampled with the use of heparin (19 units/ml) was used. Blood was fractionated to reaction tubes in amounts of 500 μl, the test compound or solvent was added thereto, and the resultants were incubated at 37° C. for 60 minutes. Dimethyl sulfoxide (DMSO) was used as a solvent for the test compound. Thereafter, ionomycin (30 nM) was added, and the reaction was allowed to proceed for 30 minutes. After the completion of the reaction, the supernatant (blood plasma) was recovered via centrifugation at 4° C., and the amount of thromboxane B2 in the plasma was quantified using a kit (519031, Cayman Chemical). The amount of thromboxane B2 produced via the addition of ionomycin was designated as 100%, and the concentration of the test compound that inhibits 50% of such reaction was represented by the IC50 value.

ICR mice = assay: Partial sciatic nerve ligation model in mice (Seltzer model), von Frey test; format: in vivo; conditions: oral administration of 10 mg/kg; 7 days after ligation; FIG. 1
Method: Analgesic effects of the compound of the present invention were evaluated using the partial sciatic nerve ligation model (Seltzer models) in mice, with which neuropathic pain can be evaluated.
Models of neuropathic pain were prepared in accordance with the method of Seltzer et al. ICR mice (5-week-old, male) were put under anesthesia with sodium pentobarbital (70 mg/kg, i.p.) to expose the sciatic nerve of the femoral region of the right posterior limb, and half of the sciatic nerve was strongly and triply ligated using 8-0 silk yarn (Natsume Seisakusho, Co., Ltd.) under a microscope (this group is designated as the “ligation group”). The group that had been subjected to exposure of the sciatic nerve without ligation was designated as a sciatic nerve control group (i.e., the “sham group”). […] The von Frey tests were performed 1 hour, 2 hours, and 3 hours after the oral administration for determining the pre-values prior to the administration of the test substances, which took place 7 days after the ligation surgery of sciatic nerve, and such values were designated as the indicators of analgesic effects. Gabapentin (30 mg/kg, po) was used as a positive control. As a solvent for the test compound, 27% HP—P—CD was used.
The obtained data were processed by performing a paired t-test amongst several groups and correcting the data via Dunnett's method.
The compound of Reference Example 78 is disclosed in the claims of JP Patent Publication (kohyo) No. 2006-517535 A, the compounds of Reference Example 93 and Reference Example 199 are disclosed in the claims of JP Patent No. 3003148, and the compound of Reference Example 103 is disclosed in the claims of JP Patent Publication (kohyo) No. 2006-514095 A. Accordingly, sulfate of Reference Example 78, toluenesulfonate of Reference Example 93, the free compound of Reference Example 199, and sulfate of Reference Example 103 were used as test compounds and evaluated using mouse models of partial sciatic nerve ligation, which were similar to those used in Example 79. 27% HP-β-CD was used as a solvent for the test compounds.

ddY mice = assay: Acetic acid writhing test in mice (analgesic effects); format: in vivo; conditions: for ED50: Mus musculus
Method: ddY mice were grown for at least 16 hours under fasting conditions while free water intake was allowed, and a solution of the test compound or a solvent was orally administered thereto (0.1 ml/10 g). As a solvent for a solution of the test compound, dimethyl sulfoxide (DMSO):Tween 80:27% hydroxypropyl-P-cyclodextrin (hereafter abbreviated to “HP-β-CD”) (1:1:8) or 27% HP-β-CD was used. A solution of 0.6% acetic acid (0.1 ml/10 g) was administered intraperitoneally 45 minutes after administration to induce a writhing reaction (i.e., a movement of stretching or arching the body). The number of the writhing reactions that had occurred for the period from 10 minutes after administration of the acetic acid solution to 10 minutes thereafter was counted, and the number of times was designated as an indicator of pain. The number of times of reactions in the group to which a solvent had been administered was designated as 100%, and the concentration of the test compound that had inhibited 50% of such reaction was designated as the ED50 value.
The compound of Reference Example 78 is disclosed in the claims of JP Patent Publication (kohyo) No. 2006-517535 A, the compounds of Reference Examples 93 and 199 are disclosed in the claims of JP Patent No. 3003148, and the compound of Reference Example 103 is disclosed in the claims of JP Patent Publication (kohyo) No. 2006-514095 A. Thus, these compounds were compared with the compounds of the present invention having similar structures in terms of analgesic effects with oral administration (Table 4) or subcutaneous administration (Table 5). Dimethyl sulfoxide (DMSO):Tween 80:27% HP-β-CD (1:1:8) or 27% HP-β-CD was used as a solvent for the test compound.

[1] = oral administration 45 minutes before 0.6% acetic acid i.p., 50% inhibition of writhing reactions, read-out: ED50 (mg/kg)[90% confidence limit]

SMILES | pIC50 (COX-2) | pIC50 (COX-1) | results of the von Frey test (ICR mice) | ED50 (ddY mice; [1]) | ED50 (ddY mice; Table 4, oral administration, comparison with similar known compound, read-out: ED50 (mg/kg) [90% confidence limit]) | activity ratio (analgesic effects) (ddY mice; oral administration, compared with Reference Example 78 (sulfate))
COC(=O)C1(c2nc(-c3ccc(OC)cc3)c(-c3ccc(OC)cc3)o2)CCN(C(=O)N(C)O)CC1 [Example 14, Methyl 4-(4,5-bis(4-methoxyphenyl)oxazol-2-yl)-1-(N-hydroxy-N-methylcarbamoyl)-4-piperidinecarboxylate] | < 5.00 | > 7.00 | significantly improved | 4.17 mg/kg |  | 
COc1ccc(-c2nc(C3(C#N)CCN(C(=O)N(C)O)CC3)oc2-c2ccc(OC)cc2)cc1 [Example 47, 4-(4,5-Bis(4-methoxyphenyl)oxazol-2-yl)-4-cyano-1-(N-hydroxy-N-methylcarbamoyl)piperidine] | < 5.00 | > 7.00 |  | 3.3 mg/kg |  | 
COc1ccc(-c2nc(C3CCN(C(=O)N(C)O)CC3)oc2-c2ccc(OC)cc2)cc1 [Example 1, 4-(4,5-Bis(4-methoxyphenyl)oxazol-2-yl)-1-(N-hydroxy-N-methylcarbamoyl)piperidine] | < 5.00 | > 7.00 |  | 2.02 mg/kg | 2.02 mg/kg | at least 49 times

Second part, led by results:

pIC50 (COX-2) | pIC50 (COX-1) | SMILES | results of the von Frey test (ICR mice) | ED50 (ddY mice; [1]) | ED50 (ddY mice; Table 4, oral administration, comparison with similar known compound, read-out: ED50 (mg/kg) [90% confidence limit]) | activity ratio (analgesic effects) (ddY mice; oral administration, compared with Reference Example 78 (sulfate))
< 5.00 | > 7.00 | COc1ccc(-c2nc(C3CCN(C(=O)N(C)O)CC3)oc2-c2ccc(Cl)cc2)cc1 [Example 20, 4-(5-(4-Chlorophenyl)-4-(4-methoxyphenyl)oxazol-2-yl)-1-(N-hydroxy-N-methylcarbamoyl)-piperidine] |  | 6.45 mg/kg |  | 
< 5.00 | > 7.00 | COc1ccc(-c2oc(C3CCN(C(=O)N(C)O)CC3)nc2-c2ccc(Cl)cc2)cc1 [Example 12, 4-(4-(4-Chlorophenyl)-5-(4-methoxyphenyl)oxazol-2-yl)-1-(N-hydroxy-N-methylcarbamoyl)-piperidine] |  | 2.29 mg/kg |  | 
< 5.00 | > 7.00 | COc1ccc(-c2oc(C3CCN(C(=O)N(C)O)CC3)nc2-c2ccc(C)cc2)cc1 [Example 4, 4-(5-(4-Methoxyphenyl)-4-(4-tolyl)oxazol-2-yl)-1-(N-hydroxy-N-methylcarbamoyl)piperidine] |  | 4.02 mg/kg |  | 
< 5.00 | > 7.00 | COc1ccc(-c2nc(C3CCN(C(=O)N(C)O)CC3)oc2-c2ccc(F)cc2)cc1 [Example 9, 4-(5-(4-Fluorophenyl)-4-(4-methoxyphenyl)oxazol-2-yl)-1-(N-hydroxy-N-methylcarbamoyl)-piperidine] |  | 2.63 mg/kg |  | 
< 5.00 | > 7.00 | COc1ccc(-c2nc(C3CCN(C(=O)N(C)O)CC3)oc2-c2ccc(C)cc2)cc1 [Example 7, 4-(4-(4-Methoxyphenyl)-5-(4-tolyl)oxazol-2-yl)-1-(N-hydroxy-N-methylcarbamoyl)piperidine] |  | 3.27 mg/kg |  | 
